Reference: BindingDB's records for doi:10.1021/jm00126a039 (University of Wisconsin-Madison, 1989)
pKi: −log10 of the molar value.

Each compound was assayed against T1, Gastricsin (Rattus norvegicus, UniProt P04073) (assay: ChEBML_154148).
T1 sequence (P04073 whole entry): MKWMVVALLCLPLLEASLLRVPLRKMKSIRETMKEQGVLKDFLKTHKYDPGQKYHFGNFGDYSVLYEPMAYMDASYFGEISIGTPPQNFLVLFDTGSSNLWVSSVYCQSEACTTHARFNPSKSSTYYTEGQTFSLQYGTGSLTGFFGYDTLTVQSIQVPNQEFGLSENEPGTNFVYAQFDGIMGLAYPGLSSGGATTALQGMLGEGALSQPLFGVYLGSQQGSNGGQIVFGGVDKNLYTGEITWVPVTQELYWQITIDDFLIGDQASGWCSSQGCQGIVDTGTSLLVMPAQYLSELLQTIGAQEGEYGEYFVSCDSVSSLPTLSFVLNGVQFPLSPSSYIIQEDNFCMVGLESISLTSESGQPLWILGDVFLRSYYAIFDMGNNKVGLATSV
Source text: Inhibition of enzyme pepsin
With CCC(NC(=O)[C@H](C)NC(=O)[C@H](C)C[C@H](O)[C@H](CC(C)C)NC(=O)[C@@H](NC(=O)CC(C)C)C(C)C)C(=O)O (stereo partly drawn) the pKi was 8.52. CC(C)CCNC(=O)[C@H](C)NC(=O)C[C@H](O)[C@H](CC(C)C)NC(=O)[C@@H](NC(=O)CC(C)C)C(C)C [3-Hydroxy-6-methyl-4-[3-methyl-2-(3-methyl-butyrylamino)-butyrylamino]-heptanoic acid [1-(3-methyl-butylcarbamoyl)-ethyl]-amide] was tested, and the pKi was 8.52. CCC(NC(=O)[C@H](C)NC(=O)[C@H](C)CC(=O)[C@H](CC(C)C)NC(=O)[C@@H](NC(=O)CC(C)C)C(C)C)C(=O)O (stereo partly drawn) showed a pKi of 6.96.
